Laboratory results reported in patent US20230286970A1, “NOVEL OXADIAZOLE-BASED SELECTIVE HDAC6 INHIBITORS” (ITALFARMACO S.P.A., priority 2020, published 2023).

Columns and labels:
recombinant human HDAC1 = recombinant human HDAC1 (Homo sapiens (Human), UniProt Q13547); assay: Enzymatic screening, HDAC1 inhibition (fluorogenic FdL_G substrate); assay type: biochemical
Outline: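 Recombinant human HDAC1 inhibition was measured fluorometrically using the FLUOR DE LYS-Green (FdL_G) substrate. Compounds at 8 doses (1% DMSO final) in Tris-HCl pH 8 buffer with NaCl, Tween-20 and glycerol were preincubated in triplicate with enzyme and 1 mg/mL BSA, then given substrate. Developer I plus 2 μM TSA was added, and fluorescence read after 25 minutes in the dark.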

recombinant human HDAC6 = recombinant human HDAC6 (Homo sapiens (Human), UniProt Q9UBN7); assay: Enzymatic screening, HDAC6 inhibition (fluorogenic FdL_G substrate); assay type: biochemical
Chain of recombinant human HDAC6 (Q9UBN7 whole entry): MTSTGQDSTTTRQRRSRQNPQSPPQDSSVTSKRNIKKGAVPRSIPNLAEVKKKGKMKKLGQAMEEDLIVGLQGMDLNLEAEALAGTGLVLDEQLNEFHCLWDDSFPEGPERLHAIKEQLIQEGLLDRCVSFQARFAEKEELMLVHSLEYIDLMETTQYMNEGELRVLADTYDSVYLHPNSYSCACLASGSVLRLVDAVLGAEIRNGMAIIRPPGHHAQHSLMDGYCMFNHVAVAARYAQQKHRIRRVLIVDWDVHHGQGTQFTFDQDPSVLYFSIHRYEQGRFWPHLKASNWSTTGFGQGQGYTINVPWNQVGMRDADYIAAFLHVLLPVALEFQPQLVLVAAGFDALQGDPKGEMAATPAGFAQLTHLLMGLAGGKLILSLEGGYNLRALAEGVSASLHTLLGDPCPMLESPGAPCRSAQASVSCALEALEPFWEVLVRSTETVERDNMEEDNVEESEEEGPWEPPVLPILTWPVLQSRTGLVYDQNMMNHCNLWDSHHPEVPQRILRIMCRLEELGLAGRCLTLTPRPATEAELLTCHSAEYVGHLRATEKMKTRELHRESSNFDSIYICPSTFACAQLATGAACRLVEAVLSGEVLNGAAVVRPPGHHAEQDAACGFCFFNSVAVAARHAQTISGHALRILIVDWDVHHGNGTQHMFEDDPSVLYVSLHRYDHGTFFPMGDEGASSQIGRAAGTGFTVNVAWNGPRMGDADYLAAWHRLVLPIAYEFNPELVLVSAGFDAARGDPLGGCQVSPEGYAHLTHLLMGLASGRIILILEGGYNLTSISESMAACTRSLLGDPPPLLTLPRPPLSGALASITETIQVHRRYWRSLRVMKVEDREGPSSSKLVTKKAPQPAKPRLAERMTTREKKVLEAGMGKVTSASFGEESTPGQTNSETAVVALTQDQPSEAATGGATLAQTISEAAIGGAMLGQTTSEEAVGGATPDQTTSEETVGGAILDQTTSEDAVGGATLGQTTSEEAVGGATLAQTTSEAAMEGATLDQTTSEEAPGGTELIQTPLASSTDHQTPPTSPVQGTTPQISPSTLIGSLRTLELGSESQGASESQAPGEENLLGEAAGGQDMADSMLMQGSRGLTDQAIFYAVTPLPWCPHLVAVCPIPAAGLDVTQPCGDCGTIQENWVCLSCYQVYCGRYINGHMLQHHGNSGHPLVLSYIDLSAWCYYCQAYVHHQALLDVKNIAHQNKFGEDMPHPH
Outline: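 Enzyme was preincubated with compound (8 doses, triplicate, 1% DMSO) in 25 mM Tris-HCl pH 8, 130 mM NaCl, 0.05% Tween-20, 10% glycerol, with BSA. A FLUOR DE LYS-Green substrate was then added, and fluorescence was read after developer plus 2 μM TSA.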

Chain of recombinant human HDAC1 (Q13547 whole entry): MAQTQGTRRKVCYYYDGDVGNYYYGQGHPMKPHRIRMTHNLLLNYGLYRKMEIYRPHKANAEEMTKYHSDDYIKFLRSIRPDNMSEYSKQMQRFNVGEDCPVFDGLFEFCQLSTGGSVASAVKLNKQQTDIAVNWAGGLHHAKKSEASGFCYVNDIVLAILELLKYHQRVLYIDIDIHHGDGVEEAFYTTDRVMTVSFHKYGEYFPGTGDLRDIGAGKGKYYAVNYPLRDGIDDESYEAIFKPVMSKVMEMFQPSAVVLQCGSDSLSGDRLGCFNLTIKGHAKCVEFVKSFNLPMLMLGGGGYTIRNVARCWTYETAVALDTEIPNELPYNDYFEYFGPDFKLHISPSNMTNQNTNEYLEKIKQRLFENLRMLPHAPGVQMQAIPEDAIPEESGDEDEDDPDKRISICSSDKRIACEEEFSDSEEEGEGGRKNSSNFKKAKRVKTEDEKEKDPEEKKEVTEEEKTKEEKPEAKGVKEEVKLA

Structure (SMILES) | IC50 (recombinant human HDAC1) | IC50 (recombinant human HDAC6)
Nc1nc2cc(-c3nnn(Cc4ccc(-c5nnc(C(F)F)o5)cc4)n3)ccc2o1 [compound 152, 5-(2-(4-(5-(difluoromethyl)-1,3,4-oxadiazol-2-yl)benzyl)-2H-tetrazol-5-yl)benzo[d]oxazol-2-amine] | > 200000 nM | 65 nM
FC(F)c1nnc(-c2ccc(Cn3nnc(-c4cccc5cnccc45)n3)cc2)o1 [compound 153, 2-(difluoromethyl)-5-(4-((5-(isoquinolin-5-yl)-2H-tetrazol-2-yl)methyl)phenyl)-1,3,4-oxadiazole] | > 200000 nM | 66 nM
NCc1ccc(-c2cn(Cc3ccc(-c4nnc(C(F)F)o4)cc3)nn2)cn1 [compound 155, (5-(1-(4-(5-(difluoromethyl)-1,3,4-oxadiazol-2-yl)benzyl)-1H-1,2,3-triazol-4-yl)pyridin-2-yl)methanamine] | > 200000 nM | 69 nM
O=C(Nc1cccc(-c2nnn(Cc3ccc(-c4nnc(C(F)F)o4)cc3)n2)c1)c1ccccc1 [compound 156, N-(3-(2-(4-(5-(difluoromethyl)-1,3,4-oxadiazol-2-yl)benzyl)-2H-tetrazol-5-yl)phenyl)benzamide] | > 200000 nM | 70 nM
Nc1cc(-c2nnn(Cc3c(F)cc(-c4nnc(C(F)F)o4)cc3F)n2)ccc1OC(=O)N1CCOCC1 [compound 160, 2-amino-4-(2-(4-(5-(difluoromethyl)-1,3,4-oxadiazol-2-yl)-2,6-difluorobenzyl)-2H-tetrazol-5-yl)phenyl morpholine-4-carboxylate] | > 200000 nM | 74 nM
O=C1Nc2cc(-c3cn(Cc4ccc(-c5nnc(C(F)F)o5)cc4)nn3)ccc2C12CCNCC2 [compound 161, 6-(1-(4-(5-(difluoromethyl)-1,3,4-oxadiazol-2-yl)benzyl)-1H-1,2,3-triazol-4-yl)spiro[indoline-3,4′-piperidin]-2-one] | > 200000 nM | 75 nM
CN(C)S(=O)(=O)c1ccc(F)c(-c2nnn(Cc3ccc(-c4nnc(C(F)F)o4)cc3)n2)c1 [compound 163, 3-(2-(4-(5-(difluoromethyl)-1,3,4-oxadiazol-2-yl)benzyl)-2H-tetrazol-5-yl)-4-fluoro-N,N-dimethylbenzenesulfonamide] | > 200000 nM | 77 nM
CNc1ccc(-c2nnn(Cc3ccc(-c4nnc(C(F)F)o4)cc3)n2)cc1N [compound 164, 4-(2-(4-(5-(difluoromethyl)-1,3,4-oxadiazol-2-yl)benzyl)-2H-tetrazol-5-yl)-N-1-methylbenzene-1,2-diamine] | > 200000 nM | 77 nM
CC(c1ccc(-c2nnc(C(F)F)o2)cc1F)n1cc(-c2cccc(NC(=O)N3CCOCC3)c2)nn1 (stereo not shown) [compound 165, N-(3-(1-(1-(4-(5-(difluoromethyl)-1,3,4-oxadiazol-2-yl)-2-fluorophenyl)ethyl)-1H-1,2,3-triazol-4-yl)phenyl)morpholine-4-carboxamide] | > 200000 nM | 78 nM
Cn1c(N)nc2ccc(-c3cn(Cc4ccc(-c5nnc(C(F)F)o5)cc4)nn3)cc21 [compound 166, 6-(1-(4-(5-(difluoromethyl)-1,3,4-oxadiazol-2-yl)benzyl)-1H-1,2,3-triazol-4-yl)-1-methyl-1H-benzo[d]imidazol-2-amine] | > 200000 nM | 78 nM
O=C1NCc2cc(-c3nnn(Cc4ccc(-c5nnc(C(F)F)o5)cc4)n3)ccc21 [compound 167, 5-(2-(4-(5-(difluoromethyl)-1,3,4-oxadiazol-2-yl)benzyl)-2H-tetrazol-5-yl)isoindolin-1-one] | > 200000 nM | 79 nM
O=c1[nH]c2ccc(-c3nnn(Cc4ccc(-c5nnc(C(F)F)o5)cc4)n3)cc2[nH]1 [compound 168, 5-(2-(4-(5-(difluoromethyl)-1,3,4-oxadiazol-2-yl)benzyl)-2H-tetrazol-5-yl)-1,3-dihydro-2H-benzo[d]imidazol-2-one] | > 200000 nM | 79 nM
CCS(=O)(=O)N1CCN(Cc2ccc(-c3cn(Cc4c(F)cc(-c5nnc(C(F)F)o5)cc4F)nn3)cc2)CC1 [compound 169, 2-(difluoromethyl)-5-(4-((4-(4-((4-(ethylsulfonyl)piperazin-1-yl)methyl)phenyl)-1H-1,2,3-triazol-1-yl)methyl)-3,5-difluorophenyl)-1,3,4-oxadiazole] | > 200000 nM | 81 nM
CN1CCc2ccc(-c3nnn(Cc4ccc(-c5nnc(C(F)F)o5)cc4)n3)cc2C1=O [compound 173, 7-(2-(4-(5-(difluoromethyl)-1,3,4-oxadiazol-2-yl)benzyl)-2H-tetrazol-5-yl)-2-methyl-3,4-dihydroisoquinolin-1 (2H)-one] | > 200000 nM | 86 nM
NC(=S)Nc1cccc(-c2cn(Cc3c(F)cc(-c4nnc(C(F)F)o4)cc3F)nn2)c1 [compound 175, 1-(3-(1-(4-(5-(difluoromethyl)-1,3,4-oxadiazol-2-yl)-2,6-difluorobenzyl)-1H-1,2,3-triazol-4-yl)phenyl)thiourea] | > 200000 nM | 88 nM
CNc1ccc(-c2nnn(Cc3ccc(-c4nnc(C(F)F)o4)cc3)n2)cc1NC(=O)N1CCOCC1 [compound 176, N-(5-(2-(4-(5-(difluoromethyl)-1,3,4-oxadiazol-2-yl)benzyl)-2H-tetrazol-5-yl)-2-(methylamino)phenyl)morpholine-4-carboxamide] | > 200000 nM | 88 nM
CC(C)(C)OC(=O)N1CCC2(C1)C(=O)Nc1ccc(-c3cn(Cc4ccc(-c5nnc(C(F)F)o5)cc4)nn3)cc12 (stereo not shown) [compound 177, tert-butyl 5-(1-(4-(5-(difluoromethyl)-1,3,4-oxadiazol-2-yl)benzyl)-1H-1,2,3-triazol-4-yl)-2-oxospiro[indoline-3,3′-pyrrolidine]-1′-carboxylate] | > 200000 nM | 89 nM

Other lines, results leading:

IC50 (recombinant human HDAC1) | IC50 (recombinant human HDAC6) | Structure (SMILES)
> 200000 nM | 53 nM | Nc1ccc(-c2noc(Cc3ccc(-c4nnc(C(F)F)o4)cc3)n2)cn1 [compound 135, 5-(5-(4-(5-(difluoromethyl)-1,3,4-oxadiazol-2-yl)benzyl)-1,2,4-oxadiazol-3-yl)pyridin-2-amine]
> 200000 nM | 53 nM | FC(F)c1nnc(-c2ccc(Cn3cc(-c4ccc5nc(Cl)[nH]c5c4)nn3)cc2)o1 [compound 136, 2-(4-((4-(2-chloro-1H-benzo[d]imidazol-6-yl)-1H-1,2,3-triazol-1-yl)methyl)phenyl)-5-(difluoromethyl)-1,3,4-oxadiazole]
> 200000 nM | 53 nM | O=C(c1cccc(-c2nnn(Cc3ccc(-c4nnc(C(F)F)o4)c(F)c3)n2)c1)N1CCOCC1 [compound 137, (3-(2-(4-(5-(difluoromethyl)-1,3,4-oxadiazol-2-yl)-3-fluorobenzyl)-2H-tetrazol-5-yl)phenyl)(morpholino)methanone]
> 200000 nM | 55 nM | CC(=O)Nc1cccc(-c2cn(Cc3ccc(-c4nnc(C(F)F)o4)cc3)nn2)c1 [compound 139, N-(3-(1-(4-(5-(difluoromethyl)-1,3,4-oxadiazol-2-yl)benzyl)-1H-1,2,3-triazol-4-yl)phenyl)acetamide]
> 200000 nM | 56 nM | Nc1ccc(-c2nc(Cc3c(F)cc(-c4nnc(C(F)F)o4)cc3F)no2)cn1 [compound 141, 5-(3-(4-(5-(difluoromethyl)-1,3,4-oxadiazol-2-yl)-2,6-difluorobenzyl)-1,2,4-oxadiazol-5-yl)pyridin-2-amine]
> 200000 nM | 59 nM | CNc1ccc2cc(-c3cn(Cc4ccc(-c5nnc(C(F)F)o5)cc4)nn3)ccc2n1 [compound 142, 6-(1-(4-(5-(difluoromethyl)-1,3,4-oxadiazol-2-yl)benzyl)-1H-1,2,3-triazol-4-yl)-N-methylquinolin-2-amine]
> 200000 nM | 62 nM | CN1CCN(C(=O)Nc2cccc(-c3cn(Cc4ccc(-c5nnc(C(F)F)o5)cc4)nn3)c2)CC1 [compound 146, N-(3-(1-(4-(5-(difluoromethyl)-1,3,4-oxadiazol-2-yl)benzyl)-1H-1,2,3-triazol-4-yl)phenyl)-4-methylpiperazine-1-carboxamide]
> 200000 nM | 63 nM | FC(F)c1nnc(-c2ccc(Cn3nnc(C4(c5ccccn5)CC4)n3)cc2)o1 [compound 147, 2-(difluoromethyl)-5-(4-((5-(1-(pyridin-2-yl)cyclopropyl)-2H-tetrazol-2-yl)methyl)phenyl)-1,3,4-oxadiazole]
> 200000 nM | 63 nM | FC(F)c1nnc(-c2ccc(Cn3nnc(-c4ccc(N5CCNCC5)nc4)n3)cc2)o1 [compound 148, 2-(difluoromethyl)-5-(4-((5-(6-(piperazin-1-yl)pyridin-3-yl)-2H-tetrazol-2-yl)methyl)phenyl)-1,3,4-oxadiazole]
> 200000 nM | 64 nM | CN1CC(C(=O)Nc2cccc(-c3cn(Cc4ccc(-c5nnc(C(F)F)o5)cc4)nn3)c2)C1 [compound 149, N-(3-(1-(4-(5-(difluoromethyl)-1,3,4-oxadiazol-2-yl)benzyl)-1H-1,2,3-triazol-4-yl)phenyl)-1-methylazetidine-3-carboxamide]
> 200000 nM | 64 nM | O=[N+]([O-])c1ccccc1-c1nnn(Cc2ccc(-c3nnc(C(F)F)o3)cc2)n1 [compound 150, 2-(difluoromethyl)-5-(4-((5-(2-nitrophenyl)-2H-tetrazol-2-yl)methyl)phenyl)-1,3,4-oxadiazole]
45100 nM | 76 nM | Cn1c(=N)n(C)c2cc(-c3cn(Cc4ccc(-c5nnc(C(F)F)o5)cc4)nn3)ccc21 [compound 162, 5-(1-(4-(5-(difluoromethyl)-1,3,4-oxadiazol-2-yl)benzyl)-1H-1,2,3-triazol-4-yl)-1,3-dimethyl-1,3-dihydro-2H-benzo[d]imidazol-2-imine]
